Assay results published in US7183253B2, “Substantially pure glycopeptide antibiotics AC-98-1, AC-98-2, AC-98-3, AC-98-4 and AC-98-5” (Wyeth Holdings Corp., priority 2001, dated 2007).
Values after ≈ are worked out from the molar mass of the structure shown. Numbered stars: 1 amine (or outer) side, 2 acyl side, 3 side chain; on linkers, the order of the positions; unused ones are H or OH. Square brackets hold non-standard residues; d marks the D form. Peptide text beside a SMILES is read from it. * marks the point of attachment. ξ: configuration not given here. X1 = N=C1NCC(C(O)C(N[*:1])C(=O)[*:2])N1C1OC(CO)C(O)C(O)C1O; ξEnduracididine(βξ-OH,4'ξ) = N=C1NCC(C(O)C(N)C(=O)O)N1; X2 = OCC1OC(OC2C(CO)OC(*)C(O)C2O)C(O)C(O)C1O; ξPhe(βξ-Me) = CC(c1ccccc1)C(N)C(=O)O

Assays:
[1] = system: Enterococcus faecium (ID-3301); experiment: In vitro antibacterial activity, agar dilution MIC; type: cell-based; settings: Mueller-Hinton agar, 5% sheep blood, 18 hours
Method: (§1) The in vitro antibacterial activity of substantially pure glycopeptide antibiotics AC-98-1, AC-98-2, AC-98-3, AC-98-4, and AC-98-5 from Examples 2 and 3 is determined against a spectrum of bacteria by a standard agar dilution method. Mueller-Hinton agar containing 5% sheep blood and two-fold decreasing concentrations of substantially pure glycopeptide antibiotics AC-98-1, AC-98-2, AC-98-3, AC-98-4, and AC-98-5 from Examples 2 and 3 are poured into petri dishes. The agar surfaces are inoculated with 1 to 5×10^4 colony forming units of bacteria by means of a Steers replicating device. The lowest concentration of antibiotic that inhibited the growth of a bacterial strain after 18 hours incubation is recorded as the minimal inhibitory concentration for that strain.

[2] = system: Enterococcus faecium (ID-3953); experiment: In vitro antibacterial activity, agar dilution MIC; type: cell-based; settings: Mueller-Hinton agar, 5% sheep blood, 18 hours
Method: as §1

[3] = system: Micrococcus luteus (ATCC 9341); experiment: In vitro antibacterial activity, agar dilution MIC; type: cell-based; settings: ATCC9341, Mueller-Hinton agar, 5% sheep blood, 18 hours
Method: as §1

[4] = system: Staphylococcus aureus (ID-4379); experiment: In vitro antibacterial activity, agar dilution MIC; type: cell-based; settings: Mueller-Hinton agar, 5% sheep blood, 18 hours
Method: as §1

[5] = system: Streptococcus pneumoniae (GC1889); experiment: In vitro antibacterial activity, agar dilution MIC; type: cell-based; settings: Mueller-Hinton agar, 5% sheep blood, 18 hours
Method: as §1

[6] = system: Streptococcus pneumoniae (ID-4444); experiment: In vitro antibacterial activity, agar dilution MIC; type: cell-based; settings: Mueller-Hinton agar, 5% sheep blood, 18 hours
Method: as §1

[7] = system: Staphylococcus aureus Smith; experiment: In vivo antibacterial activity in infected mice; settings: female CD-1 mice infected intraperitoneally with Staphylococcus aureus Smith; treated intravenously 30 minutes before infection; read-out: ED50 (iv, mg/kg) Staphylococcus aureus
Method: The in vivo antibacterial activity of substantially pure glycopeptides AC-98-1, AC-98-2, AC-98-3, AC-98-4, and AC-98-5 is established by infecting female CD-1 mice from Charles River Laboratories, weighing 20+/−2 g each, intraperitoneally with 6.5×10^5 CFU/0.5 ml of broth of Staphylococcus aureus Smith. The mice are treated intravenously, 30 minutes before infection with the indicated dose of the test compound in 0.2 ml of water.

[8] = system: Escherichia coli (ATCC 25922); experiment: In vitro antibacterial activity, agar dilution MIC; type: cell-based; settings: ATCC25922, Mueller-Hinton agar, 5% sheep blood, 18 hours
Method: as §1

[9] = system: Escherichia coli (J2175); experiment: In vitro antibacterial activity, agar dilution MIC; type: cell-based; settings: Mueller-Hinton agar, 5% sheep blood, 18 hours
Method: as §1

Compound	MIC [1] [mg/mL]	MIC [2] [mg/mL]	MIC [3] [mg/mL]	MIC [4] [mg/mL]	MIC [5] [mg/mL]	MIC [6] [mg/mL]	ED50 [7] [mg/kg]	MIC [8] [mg/mL]	MIC [9] [mg/mL]
CC(C)CC(=O)OC1C(OC2C(CO)OC(Oc3ccc(CC4NC(=O)C(C(C)c5ccccc5)NC(=O)CNC(=O)C(CO)NC(=O)C(C(O)C5CNC(=N)N5C5OC(CO)C(O)C(O)C5O)NC(=O)C(C(O)C5CNC(=N)N5)NC4=O)cc3)C(O)C2O)OC(CO)C(O)C1O (stereo not drawn) [AC-98-3]	64 (≈ 46.4 mM)	64 (≈ 46.4 mM)	2 (≈ 1.45 mM)	8 (≈ 5.8 mM)	4 (≈ 2.9 mM)	8 (≈ 5.8 mM)	3.8		
CC(C)CC(=O)OC1C(O)C(CO)OC(OC2C(CO)OC(Oc3ccc(CC4NC(=O)C(C(C)c5ccccc5)NC(=O)CNC(=O)C(CO)NC(=O)C(C(O)C5CNC(=N)N5C5OC(CO)C(O)C(O)C5O)NC(=O)C(C(O)C5CNC(=N)N5)NC4=O)cc3)C(O)C2O)C1O (stereo not drawn) [AC-98-4]	64 (≈ 46.4 mM)	64 (≈ 46.4 mM)	2 (≈ 1.45 mM)	4 (≈ 2.9 mM)	4 (≈ 2.9 mM)	4 (≈ 2.9 mM)	2.6		
CC(c1ccccc1)C1NC(=O)CNC(=O)C(CO)NC(=O)C(C(O)C2CNC(=N)N2C2OC(CO)C(O)C(O)C2O)NC(=O)C(C(O)C2CNC(=N)N2)NC(=O)C(Cc2ccc(O)cc2)NC1=O (stereo not drawn) [AC-98-2] (cyclo(G[ξPhe(βξ-Me)]Y[ξEnduracididine(βξ-OH,4'ξ)][X1]S); configuration not given here)			16 (≈ 16.5 mM)	64 (≈ 65.9 mM)		> 64	> 32	64 (≈ 65.9 mM)	64 (≈ 65.9 mM)
CC(C)CC(=O)OC1C(CO)OC(OC2C(CO)OC(Oc3ccc(CC4NC(=O)C(C(C)c5ccccc5)NC(=O)CNC(=O)C(CO)NC(=O)C(C(O)C5CNC(=N)N5C5OC(CO)C(O)C(O)C5O)NC(=O)C(C(O)C5CNC(=N)N5)NC4=O)cc3)C(O)C2O)C(O)C1O (stereo not drawn) [AC-98-5]	16 (≈ 11.6 mM)	32 (≈ 23.2 mM)	1 (≈ 0.725 mM)	4 (≈ 2.9 mM)		2 (≈ 1.45 mM)	0.6		64 (≈ 46.4 mM)
CC(c1ccccc1)C1NC(=O)CNC(=O)C(CO)NC(=O)C(C(O)C2CNC(=N)N2C2OC(CO)C(O)C(O)C2O)NC(=O)C(C(O)C2CNC(=N)N2)NC(=O)C(Cc2ccc(OC3OC(CO)C(OC4OC(CO)C(O)C(O)C4O)C(O)C3O)cc2)NC1=O (stereo not drawn) [AC-98-1] (cyclo(G[ξPhe(βξ-Me)]Y(X2)[ξEnduracididine(βξ-OH,4'ξ)][X1]S); configuration not given here)			64 (≈ 49.4 mM)			> 32	20		
